# Literature values, collected in publication PMC7576618 (British Journal of Clinical Pharmacology, 2020).
# Where two headings read alike, the source gives them in different places.
# Experiments:
# mGlu2 receptor [1] = conditions: read-out: in vitro EC50 for mGlu2 receptor; cited from earlier work
# mGlu2 receptor [2] = conditions: read-out: EC50 (assay system used by Eli Lilly); cited from earlier work
# [3] = humans; cited from earlier work
# [4] = active compound LY2812223; cited from earlier work
compound,measurement,setting,value
"N[C@@]1(C(=O)O)CC[C@H]2[C@H](C(=O)O)[C@H]21 [LY354740, (+)‐2‐aminobicyclo[3.1.0]hexane‐2,6‐dicarboxylic acid]",EC50,mGlu2 receptor [1],0.0183 µM
same,EC50,mGlu2 receptor [2],0.0051 µM
CSCC[C@H](N)C(=O)N[C@@]1(C(=O)O)CS(=O)(=O)[C@H]2[C@H](C(=O)O)[C@H]21 [LY2140023],plasma exposure of the prodrug relative to that of LY404039,[3],approximately 30%
C[C@H](N)C(=O)N[C@@]1(C(=O)O)C[C@@H](Sc2nnc[nH]2)[C@H]2[C@H](C(=O)O)[C@H]21 [LY2979165],plasma levels of prodrug relative to its active compound,[4],< 1%
